Consider three compounds from patent US6329378A, “Hydrazone, hydrazine and thiosemicarbazone derivatives as antifungal agents” (Anadys Pharmaceuticals, Inc., priority 2000, dated 2001).

Each structure is given as a SMILES string. Values after ≈ are worked out from the molar mass of the structure shown.

Assay [1] deals with C. albicans. Kind of assay: MIC, broth microdilution (NCCLS M27-A), C. albicans. Format: cell-based, Candida albicans. The note with it: Candida albicans, ATCC10231, 35° C., 48 hours, C. albicans ATCC 10231. On the procedure: (§1) Compounds of the invention were tested for antifungal susceptibility using broth microdilution assay established by the National Committee for Clinical Laboratory Standards, in NCCLS Document M27-A, which is hereby incorporated by reference. Minimum inhibitory concentrations (MICs) and minimum fungicidal concentrations (MFCs) were measured.
(§2) Yeasts (Saccharomyces cerevisiae and Candida albicans) are cultured on SDA plates in a 35° C. incubator. Strains on SDA plates are stored at 4° C. and used as working stock cultures.
(§3) Inoculum for susceptibility testing is prepared from fresh 24 hour cultures. 5-10 colonies are scraped from the plate and suspended in three milliliters of sterile 0.85% saline (8.5 g/liter NaCl). The cell density of the solution is determined by measuring the absorbance in a spectrophotometer (Shimadzu UV-1201S UV-VIS Spectrophotometer) set at 600 nm. An absorbance value between 0.1 and 0.4 is required for an accurate reading.
(§4) For Candida albicans strains ATCC 10231, 1.0 OD600 unit is approximately 10^7 cells per ml. For Saccharomyces cerevisiae strain CTY552, 1.0 OD600 unit is slightly less than 10^7 cells per ml. Cell suspensions are diluted with the appropriate medium (typically RPMI-1640) to OD600 =0.0003 for Candida and OD600 =0.0004 for Saccharomyces. The diluted suspension contains approximately 3×10^3 cells per ml (this is a 2×concentration inoculum). Two 100 μl aliquots of this dilution are spread on SDA plates and incubated at 35° C. for 1-2 days to determine the precise number of colony forming units. An acceptable range for the inoculum (2×) is 1-5×10^3 cfu/ml (100-500 for 100 μl). Following two-fold dilution of the inoculum with compound, the final concentration of cells will be 0.5-2.5×10^3 per ml. The inoculum is kept at 4° C. and used within a few hours.
(§5) Stock solutions and concentrations tested will vary from compound to compound. In general, though, stock solutions of 12.8 mg/ml in DMSO (Sigma D-8779) are prepared. This will allow for a 128 μg/ml starting test concentration containing 1% DMSO. Stock solutions are stored at -20° C. and dilutions for antifungal testing are freshly prepared before each assay.
(§6) Stock solutions of Amphotericin B and Itraconazole are prepared at 1.6 mg/ml in DMSO. Amphotericin B is sold as a powder that is approximately 80% Amphotericin B. Stock solutions are made accordingly (2.0 mg of powder for a 1 ml solution of 1.6 mg/ml Amphotericin B).
(§7) Both of these (control and test compounds) represent 1:50 dilutions. For an assay with three fungal strains, 40 microliters of a stock solution are diluted to 2.0 ml with room temperature medium.
(§8) Antifungal susceptibility tests are setup in polystyrene, 96-well, flat bottom plates (Costar 9017). To every well in columns 2-12 is added 100 microliters of media. An electronic multichannel (12) pipettor with no tip on channel one is used. To every well in column one is added 200 microliters of diluted compound (32 μg/ml for Amphotericin B and Itraconazole controls, 256 μg/ml for test compounds, 100-fold dilution for natural product extracts). A manual multichannel (8) pipettor is then used to set up a series of 2-fold dilutions. 100 microliters is removed from each well of column one and mixed with 100 microliters in column 2. This is done successively (column two to column three etc.) to produce a set of 11 serial dilutions (column 12 is a drug free control).
(§9) To every well in two rows, 100 μl of inoculum (2×) of a single strain is added. To the final two rows on the plate (G & H), only media is added. Addition of inoculum is best accomplished using an electronic multichannel (12) pipettor. This setup (see below) creates a starting cell density of […] (100-500 per well) and drug concentration ranging from 16 μg/ml to […] for controls (Amphotericin B and Itraconazole), 128 μg/ml to 0.125 μg/ml for pure test compounds, and 200 to 204, 800-fold dilutions for natural product extracts.

For assay [2], the system named is C. albicans. The assay can be described thus: Minimum fungicidal concentration (MFC), C. albicans. Format: cell-based, Candida albicans. The conditions noted are these: Candida albicans; viability on SDA plate, 35° C. As for the experimental part:
as §1, §2, §3, §4, §5, §6
(§10) Stock solutions of control compounds (1.6 mg/ml, Amphotericin B or Itraconazole) are initially diluted in medium to a concentration of 32 μg/ml while stock solutions of test compounds (typically 12.8 mg/ml) are diluted to 256 μg/ml. Both of these (control and test compounds) represent 1:50 dilutions. For an assay with three fungal strains, 40 microliters of a stock solution are diluted to 2.0 ml with room temperature medium.
as §8
(§11) To every well in two rows, 100 μl of inoculum (2×) of a single strain is added. To the final two rows on the plate (G & H), only media is added. Addition of inoculum is best accomplished using an electronic multichannel (12) pipettor. […]

For assay [3], the system named is A. Nidulans. The assay can be described thus: MIC, broth microdilution (NCCLS M27-A), A. nidulans. Format: cell-based. The conditions noted are these: Aspergillus nidulans, 35° C., 48 hours. As for the experimental part: as §1
Filamentous fungi (Aspergillus spp.) is cultured on PDA plates in a 35° C. incubator. Inoculum of Aspergillus for susceptibility testing is prepared from plates incubated at 35° C. for 5 days. Colonies are covered with 5 ml of sterile 0.85% saline (8.5 g/liter NaCl) and gently rocked for 10-15 minutes. To dislodge the conidia, an automatic pipettor is used to gently wash over the colonies. The saline solution is removed from the plate and the heavy particles are allowed to settle for 3-5 minutes. The upper suspension is removed and vortexed for 15 sec. The turbidity of the solution is determined by measuring the absorbance in a spectrophotometer (Shimadzu UV-1201S UV-VIS Spectrophotometer) set at 600 nm. An absorbance value between 0.1 and 0.4 is required for an accurate reading.
The cell suspension is diluted with the appropriate medium (typically RPMI-1640) to OD600 =0.0004. The final suspension should contain approximately 3×10^3 cfu per ml (this is a 2×concentrationinoculum). Two 100 μl aliquots of this dilution are spread on SDA plates and incubated at 35° C. for 1-2 days to determine the precise number of colony forming units. An acceptable range for the inoculum (2×) is 1-5×10^3 cfu/ml (100-500 for 100 μl). Following two-fold dilution of the inoculum with compound, the final concentration of cells will be 0.5-2.5×10^3 per ml. The inoculum is kept at 4° C. and used within a few hours.
as §5, §6, §7, §8, §9

In assay [4] the test system is S. serevisiae. The assay can be described thus: MIC, broth microdilution (NCCLS M27-A), S. cerevisiae. The format is cell-based, Saccharomyces cerevisiae. The conditions noted are these: Saccharomyces cerevisiae, 48 h, read-out: MIC S. serevisiae. As for the experimental part: as §1, §2, §3, §4, §5, §6, §10, §8, §11
Background: In broth dilution the organism is exposed to a series of concentrations in liquid medium.

For the compound `Oc1cc(OCc2ccccc2)ccc1/C=N/NC(=S)Nc1cccc(C(F)(F)F)c1` [(42)], the MIC in assay [1], in assay [3] and in assay [4] was 0.25 µg/mL (≈ 0.561 µM) each time. The MFC in assay [2] was greater than 128 µg/mL.
`CCN(CC)c1ccc(/C=N/NC(=S)Nc2cccc(C(F)(F)F)c2)c(O)c1` [(48)]: the MIC in assay [1] was 1 µg/mL (≈ 2.44 µM); in assay [3] it was 0.5 µg/mL (≈ 1.22 µM); in assay [4], 0.5 µg/mL (≈ 1.22 µM). Besides, the MFC in assay [2] is greater than 128 µg/mL.
With `Oc1cc(N2CCOCC2)ccc1/C=N/NC(=S)Nc1cccc(C(F)(F)F)c1` [(49)], the MIC in assay [1] turned out to be 2 µg/mL (≈ 4.71 µM); in assay [3], 0.5 µg/mL (≈ 1.18 µM); in assay [4], 1 µg/mL (≈ 2.36 µM). Besides, the MFC in assay [2] was greater than 128 µg/mL.

In general, MIC refers to the least concentration at which growth counts as inhibited. As usually defined, the MFC is the lowest tested concentration that kills the fungus rather than only halting it.
